Tests used:
Conditions in all cases: 72 h
U2OS [1] = assay: relative viability EC50 (midpoint between 100% and the lowest measured viability); higher = less toxic
Calu-3 [2] = assay: as above
Vero E6 [3] = assay: as above
Caco-2 [4] = assay: as above
U2OS [5] = assay: cell viability relative to DMSO; higher = less toxic
Calu-3 [6] = assay: as above
Vero E6 [7] = assay: as above
Caco-2 [8] = assay: as above
U2OS [9] = assay: drug sensitivity score (DSS) for viability; higher = more toxic; extreme values may be limits of the assay
Calu-3 [10] = assay: as above
Vero E6 [11] = assay: as above
Caco-2 [12] = assay: as above
HepG2 [13] = assay: as above
HepG2 [14] = assay: cell viability relative to DMSO; higher = less toxic

| SMILES | relative viability EC50 (U2OS [1]) [µM] | relative viability EC50 (Calu-3 [2]) [µM] | relative viability EC50 (Vero E6 [3]) [µM] | relative viability EC50 (Caco-2 [4]) [µM] | cell viability (U2OS [5]; 1 nM) [%] | cell viability (U2OS [5]; 10 nM) [%] | cell viability (U2OS [5]; 100 nM) [%] | cell viability (U2OS [5]; 1000 nM) [%] | cell viability (U2OS [5]; 10000 nM) [%] | cell viability (Calu-3 [6]; 1 nM) [%] | cell viability (Calu-3 [6]; 10 nM) [%] | cell viability (Calu-3 [6]; 100 nM) [%] | cell viability (Calu-3 [6]; 1000 nM) [%] | cell viability (Calu-3 [6]; 10000 nM) [%] | cell viability (Vero E6 [7]; 1 nM) [%] | cell viability (Vero E6 [7]; 10 nM) [%] | cell viability (Vero E6 [7]; 100 nM) [%] | cell viability (Vero E6 [7]; 1000 nM) [%] | cell viability (Vero E6 [7]; 10000 nM) [%] | cell viability (Caco-2 [8]; 1 nM) [%] | cell viability (Caco-2 [8]; 10 nM) [%] | cell viability (Caco-2 [8]; 100 nM) [%] | cell viability (Caco-2 [8]; 1000 nM) [%] | cell viability (Caco-2 [8]; 10000 nM) [%] | drug sensitivity score (U2OS [9]) | drug sensitivity score (Calu-3 [10]) | drug sensitivity score (Vero E6 [11]) | drug sensitivity score (Caco-2 [12]) | drug sensitivity score (HepG2 [13]) | cell viability (HepG2 [14]; 1 nM) [%] | cell viability (HepG2 [14]; 10 nM) [%] | cell viability (HepG2 [14]; 100 nM) [%] | cell viability (HepG2 [14]; 1000 nM) [%] | cell viability (HepG2 [14]; 10000 nM) [%] |
| --- | --- | --- | --- | --- | --- | --- | --- | --- | --- | --- | --- | --- | --- | --- | --- | --- | --- | --- | --- | --- | --- | --- | --- | --- | --- | --- | --- | --- | --- | --- | --- | --- | --- | --- |
| CC(C)(C)NCC(O)c1cc(Cl)c(N)c(Cl)c1 (stereo unspecified) [clenbuterol] | > 10 | > 10 | > 10 | > 10 | 97.6 | 95 | 105 | 98.2 | 96.9 | 108 | 85.1 | 100 | 93.7 | 97.4 | 95.3 | 101 | 97.8 | 104 | 112 | 93.7 | 89.9 | 103 | 90.8 | 117 | 0 | 0 | 0 | 0 |  |  |  |  |  |  |
| CCOC(=O)c1ccc(OCCC2CCN(c3ccc(C)nn3)CC2)cc1 [pirodavir] |  |  |  |  |  |  |  |  |  |  |  |  |  |  |  |  |  |  |  |  |  |  |  |  | 0 | 0 | 0 |  | 0 |  |  |  |  |  |
| COc1ccccc1S(=O)(=O)Nc1ccc2c(c1)CN(C)C(=O)N2 [PFI-1] |  |  | 1.65 | > 10 |  |  |  |  |  | 102 | 92.6 | 102 | 88 | 58.2 | 102 | 102 | 96.2 | 81.5 | 16.3 | 102 | 102 | 107 | 94 | 75.7 |  | 3.9 | 7.6 | 1.7 | 3.6 | 108 | 103 | 94.3 | 94.4 | 50.1 |
| COc1cc2/c(=N/c3ccc(Br)cc3F)nc[nH]c2cc1OCC1CCN(C)CC1 [vandetanib] |  | 1.24 | 1.3 |  |  |  |  |  |  | 101 | 95.3 | 85.7 | 66.2 | 13.4 | 104 | 100 | 98.3 | 72.9 | 20.6 | 109 | 105 | 86 | 88.4 | 57.2 |  | 8.7 | 8.2 | 3.3 | 1.5 | 113 | 106 | 110 | 96.7 | 74 |
| Nc1nc(NCCNc2ncc(-n3ccnc3)c(-c3ccc(Cl)cc3Cl)n2)ccc1[N+](=O)[O-] | > 10 | > 10 | > 10 | > 10 | 96.9 | 101 | 96.7 | 103 | 110 | 96.3 | 98.1 | 104 | 111 | 112 | 96.1 | 98 | 94.2 | 97.1 | 106 | 96.7 | 99.9 | 100 | 111 | 111 | 0 | 0 | 0 | 0 |  |  |  |  |  |  |
| CN(C)CCc1c[nH]c2ccc(CS(=O)(=O)N3CCCC3)cc12 [almotriptan] | > 10 | > 10 |  | > 10 | 101 | 104 | 101 | 98.6 | 100 | 98.8 | 103 | 108 | 97.8 | 106 |  |  |  |  |  | 92.9 | 97.9 | 99.9 | 109 | 106 | 0 | 0 |  | 0 |  |  |  |  |  |  |
| COc1c(N2C[C@@H]3CCCN[C@@H]3C2)c(F)cc2c(=O)c(C(=O)O)cn(C3CC3)c12 [moxifloxacin] |  |  |  |  |  |  |  |  |  |  |  |  |  |  |  |  |  |  |  |  |  |  |  |  | 0 | 0 | 0 |  | 0 |  |  |  |  |  |
| CC(C)(C(=O)O)c1ccc(C(O)CCCN2CCC(C(O)(c3ccccc3)c3ccccc3)CC2)cc1 (stereo unspecified) [fexofenadine] |  |  |  |  |  |  |  |  |  |  |  |  |  |  |  |  |  |  |  |  |  |  |  |  | 0 | 0 | 0 |  |  |  |  |  |  |  |
| CCC(=O)O[C@H](CC(=O)O)C[N+](C)(C)C [levocarnitine-propionate] |  | > 10 | > 10 | > 10 |  |  |  |  |  | 87.9 | 108 | 97.9 | 100 | 85.8 | 106 | 105 | 99.2 | 100 | 104 | 94.7 | 103 | 98.7 | 108 | 98.5 |  | 0.2 | 0 | 0 |  |  |  |  |  |  |
| Cc1cc(O)c(C(=O)N[C@@H](C(=O)N[C@@H]2C(=O)N3C(C(=O)O)=C(CSc4nnnn4C)CS[C@H]23)c2ccc(O)cc2)cn1 [cefpiramide] | > 10 | > 10 | > 10 | > 10 | 93.4 | 98.3 | 96.5 | 99.5 | 101 | 99 | 102 | 108 | 106 | 98 | 101 | 94.1 | 100 | 104 | 96.3 | 94.2 | 106 | 116 | 110 | 95.3 | 0 | 0 | 0 | 0 |  |  |  |  |  |  |
| CN(C)CCN(Cc1cccs1)c1ccccn1 [methapyrilene] | > 10 | > 10 | > 10 | > 10 | 102 | 102 | 97.9 | 102 | 96.7 | 101 | 101 | 92.6 | 89.3 | 89.7 | 98.1 | 99.9 | 101 | 96.4 | 96.3 | 103 | 95.2 | 94.2 | 104 | 107 | 0 | 0.3 | 0 | 0 |  |  |  |  |  |  |
| CC(O)CN1CCN(CC(=O)[O-])CCN(CC(=O)[O-])CCN(CC(=O)[O-])CC1.[Gd+3] (stereo unspecified) [gadoteridol] | > 10 | > 10 | > 10 | > 10 | 93.2 | 103 | 98.5 | 99.1 | 103 | 101 | 91.2 | 95.3 | 102 | 96.1 | 94.7 | 93.1 | 110 | 93.1 | 105 | 103 | 110 | 96 | 142 | 92.1 | 0 | 0 | 0 | 0 |  |  |  |  |  |  |
| COc1ccccc1N1CCN(CCCCN2C(=O)CCC2=O)CC1 [MM77] | > 10 | > 10 | > 10 | > 10 | 100 | 101 | 94.9 | 106 | 97.2 | 104 | 100 | 96.6 | 114 | 107 | 94.5 | 93.4 | 92.7 | 94 | 110 | 92.4 | 102 | 83.8 | 102 | 106 | 0 | 0 | 0 | 0 |  |  |  |  |  |  |
| Clc1cccc(Cl)c1NC1=NCCN1 [clonidine] | > 10 | > 10 | > 10 | > 10 | 103 | 103 | 95.9 | 101 | 98.5 | 98.4 | 87.9 | 90.4 | 87 | 88.8 | 95.6 | 101 | 102 | 99.3 | 95.2 | 95.3 | 95.6 | 96.1 | 84.1 | 94 | 0 | 2.3 | 0 | 0 |  |  |  |  |  |  |
| C=CC(=O)O [acrylate] |  |  |  |  |  |  |  |  |  |  |  |  |  |  |  |  |  |  |  |  |  |  |  |  | 0 | 0 | 0 |  | 0 |  |  |  |  |  |
| FC(F)OC(F)(F)C(F)Cl (stereo unspecified) [enflurane] |  | > 10 | > 10 | > 10 |  |  |  |  |  | 85.1 | 94.2 | 85.6 | 101 | 103 | 94.7 | 103 | 98.4 | 104 | 103 | 96.9 | 104 | 98.3 | 103 | 107 |  | 0 | 0 | 0 |  |  |  |  |  |  |
